Reference: US20260167675A1, “VIRAL PEPTIDES AND USES THEREOF” (priority 2022, published 2026)

System: human HLA-A11
Assay: Flow cytometry binding of a pan HLA-A antibody against K562/HLA-A11 cells pulsed with HBV POL606-616 peptides (peptide loading)
Assay type: cell-based
Details: maximum MFI pulsed / maximum MFI un-pulsed cells, loaded if S/N > 1.1; for S/N Peptide Concentration (33 μg/ml): K562/HLA-A11 cells pulsed with 33 μg/ml peptide; for S/N Peptide Concentration (100 μg/ml): K562/HLA-A11 cells pulsed with 100 μg/ml peptide
Method: The present Example was designed to assess loading of HBV POL606-616 peptides on HLA-A11 in K562 cells engineered to express human HLA-A11 (K562/HLA-A11 cells). To assess loading of HBV POL606-616 peptides on HLA-A11, K562 cells engineered to express human HLA-A11 (K562/HLA-A11 cells) were pulsed by resuspending the cells in AIM V medium (Gibco. Catalog #31035-025) at a density of 1×10^6 cells/ml followed by the addition of 10 μg/ml human β2-microglobulin (hB2M; EMID Millipore Catalog #475828) and either 100 μg/ml or 33 μg/ml of the indicated peptide (Table 14).
K562/HLA-A11 cells were then incubated overnight at 37° C. Peptide-pulsed cells were then harvested and plated in staining buffer (PBS, without Calcium and Magnesium (Corning, Reference #21-031-CV)+2% FBS (Seradigm, Lot #238B15)) at a density of 200,000 cells per well in a 96-well V-Bottom plate. Cells were incubated with three-fold serial dilutions (5.1 pM-100 nM) with a pan HLA-A antibody (Novus, Catalog #DDX0250P-100) for 30 minutes at 4° C., washed once in staining buffer, and incubated with an Alexa-647 conjugated secondary antibody (Jackson ImmunoResearch, Catalog #115-606-071) at 5 µg/ml for 30 minutes at 4° C. Cells were again washed once in staining buffer and stained with viability dye (CellTrace™ Violet Cell Proliferation Kit, Thermo-Fisher Cat #C34557) for 30 minutes at 4° C. Lastly, cells were washed once in staining buffer and fixed using a 50% solution of BD Cytofix (BD, Catalog #554655). Samples were run and analyzed on an IntelliCyt iQue flow cytometer to calculate mean fluorescence intensity (MFI) on live cells. MFI values were plotted in GraphPad Prism. The secondary antibody alone condition (i.e., no primary antibody) for each dose-response curve was also included in the analysis as a continuation of the three-fold serial dilution and was represented as the lowest dose. The signal-to-noise (S/N) was calculated by dividing the maximum MFI on the pulsed cells by the maximum MFI on un-pulsed K562/HLA-A11 cells (Table 15). Peptides were determined to load if the S/N from pulsed cells/un-pulsed cells was greater than 1.1.

Sequence | S/N Peptide Concentration (33 μg/ml) | S/N Peptide Concentration (100 μg/ml)
GSLPQEHIIQK (Hepatitis B virus) [HBV POL606-616 V4] | 1.5 | 1.5
GSLPQEHIVQK (Hepatitis B virus) [HBV POL606-616 V1] | 1.6 | 1.4
GTLPQEHIVQK (Hepatitis B virus) [HBV POL606-616 V3] | 1.6 | 1.5
GTLPQEHIVHK (Hepatitis B virus) [HBV POL606-616 V2] | 1.0 | 1.1
